Measurements from patent publication US20220137028A1, “In Vitro Assays as Indicator of Local Tolerance” (Lonza Ltd, priority 2019, published 2022).

Key:
[1] = Tonicity of 10% co-solvent solutions; assay type: physicochemical; conditions: solutions with 10% co-solvent
[2] = tested on: human heparinized whole blood (erythrocytes); test: In vitro hemolysis test with co-solvents (study procedure, Drabkin's solution, absorbance 540 nm); conditions: for max. well tolerated co-solvent concent: co-solvent diluted with NaCl 0.9%, intersection of fitted sigmoidal curve with 5% hemolysis line, 10 min at 37° C.; for hemolysis value: human, 10 min, 10 % v/v
Protocol: A test was developed to determine the hemolytic activity of a pharmaceutical formulation. The test utilized fresh anticoagulated human blood. In general, the test was performed by diluting the pharmaceutical product with fresh saline, then mixing with an aliquot of fresh human whole blood. After incubating at 37° C., the test solutions were centrifuged, and the concentration of hemoglobin was measured in the supernatant using spectroscopic techniques.
To determine the 100% hemolysis value, equal volumes of […] and blood were mixed, centrifuged, and mixed again. 30 μl was transferred to a plate, and 170 μl of Drabkin's reagent was added. The 100% hemolysis value was indicated as Value A.
To determine the 0% hemolysis value, equal volumes of saline and blood were mixed. The 0% hemolysis value is indicated as Value B.
The dilutions were performed in glass or plastic tubes with a diameter of approximately 12 mm and a length of approximately 100 mm.
400 μl of whole blood was added to each tube. The components were carefully homogenized. The tubes were incubated for 10 minutes at 37° C., homogenized again and then centrifuged for 10 minutes at 2500×g. The contents of the tube were mixed for Value A (100% hemolysis) and then transferred 3 times 30 μl of each tube of the supernatant to a 96-well plate (flat bottom) and 170 μl of Drabkin's solution was added to each well containing solution. The plate was read in a plate reader at wavelength 540 nm.
For evaluation of the test results from the plate reader reading at wavelength 540 nm, the mean values of the triplicates were calculated. The percent hemolytic activity was determined according to the following formula:
wherein: % HA=percent hemolytic activity; A=Value for 100% HA; B=Value for 0% HA; C=Value for tested solution.
Dilutions of the co-solvents were prepared in tubes. An equal volume of human heparinized whole blood was added and homogenized. The test co-solvents were diluted in sterile, pyrogen-free water and sterile, pyrogen-free saline.
The following equation was used to obtain a curve fitting of the hemolysis data: […]
The maximal well tolerated co-solvent concentration was obtained by calculating the intersection of the sigmoidal curves with the horizontal line at hemolysis, i.e., 5%.

Compound	tonicity of the solution [1]	flocculation in hemolysis test [2]	hemolysis at the lowest tested co-solvent concentration (in words) [2]	max. well tolerated co-solvent concent [2] [%]	hemolysis value [2] [%]	co-solvent concentration at which significant (>10%) hemolysis is induced [2]	effect of switch from water for injection to saline as diluent on hemolytic behavior [2]
CCO [Ethanol]	clearly hypertonic	significant flocculation	high hemolysis	29	~100	–	–
CC(O)CO (stereo not drawn) [PG, Propylene glycol]	clearly hypertonic	–	high hemolysis	48	~100	–	–
Polyethylene glycol 300 [PEG 300]	isotonic	–	–	–	–	60-70%	did not drastically modify the hemolytic behavior
Polyethylene glycol 400 [PEG 400]	close to isotonicity	–	–	–	–	50-60%	did not drastically modify the hemolytic behavior
